Data taken from patent US10604514B2, “6-(5-membered heteroaryl)isoquinolin-3-yl carboxamides and preparation and use thereof” (Samumed, LLC, priority 2017, dated 2020).

Key:
[1] = tested on: Tau phosphorylation at Threonine 212 (pT212Tau), HEK293T cells; experiment: Tau phosphorylation at Threonine 212 (pT212Tau) in Dyrk1a- and MAPT-overexpressing HEK293T cells, sandwich ELISA; type: cell-based; settings: Homo sapiens, HEK-293T, overnight (16-18 hours), read-out: Thr212 EC50
Procedure: Representative compounds were screened using the cell-based assay procedure for signal of Tau phosphorylation at Threonine 212 (pT212Tau) in a transiently double transfected (Dyrk1a- and MAPT-overexpressing) cell type as described below.
HEK293T cells (transfectable human embryonic kidney cells) were cultured in DMEM medium supplemented with 10% FBS and 1% penicillin/streptomycin.
HEK293T cells were transiently transfected to overexpress Dyrkla and microtubule-associated protein Tau (MAPT) genes. Specifically, Dyrkla and MAPT expression vectors were obtained from OriGene (10 μg of each, catalog numbers SC314641 and RC216166, respectively). A MaxiPrep for each vector was ordered and received from GeneWiz, yielding […] (resuspended at […]) of the Dyrkla expression vector, and 898 μg (resuspended at 1.796 μg/μL) of MAPT.
HEK293T cells were seeded at 1.0×10^7 cells in 10 mL per T-75 flask. […] One T-75 flask was designated as a no-vector negative control for pT212Tau signal.
After 4˜6 hours of incubation in transfection reagents, transiently double transfected HEK293T cells were dissociated by treatment with trypsin EDTA and seeded at 1.0×10^5 cells in 100 μL per well in 96-well plates. No-vector negative controls were seeded in separate 96-well plates to avoid the risk of the negative control cells picking up the overexpression during incubation. At the time of seeding, DMSO-resuspended Samumed compounds were dispensed to eight wells as a serial dilution from 10 μM to 4.6 nM final concentration in medium, or at 0.12 μM to 0.05 nM with particularly potent compounds. Cells were exposed to the representative compounds overnight (16-18 hours) in a 37° C. incubator.
96-Well flat-bottom plates were coated with 100 μL per well anti-HT7 capture antibody (ThermoFisher, MN1000) diluted 1:300 in 1×PBS at 4° C. overnight, with shaking at 500 rpm. After overnight capture antibody incubation, coated plates were washed four times with 200 µL per well of 1×PBS-0.05% Tween-20, and blocked for 1 hour with 200 μL per well of 1×PBS with 2% BSA. After 1 hour of blocking, plates were washed four times with 200 μL per well of 1×PBS-0.05% Tween-20, prior to sample loading.
Wells of compound-treated cells were visually checked for cell death before being washed with 200 μL per well of 1×DPBS supplemented with phosphatase inhibitor diluted to IX. Cells were then lysed with 100 μL 1×RIPA buffer supplemented with phosphatase and protease inhibitors (each diluted to a final 1×). Cells were shaken at 500 rpm, 4° C. for 20 minutes prior to further lysis (via manual scraping) and transfer to 96-well V-bottom collection plates (Corning, 3894). V-bottom plates were centrifuged at 4000 rpm, 4° C., for 15 minutes, and 100 μL of lysate supernatant from each well was directly tested for pT212Tau signal by sandwich ELISA.
Specifically, lysates were directly transferred to the coated and blocked ELISA plates for 2 hours before plates were washed four times with 200 μL per well of 1×PBS-0.05% Tween-20 and probed with 100 μL per well of anti-pT212Tau antibody (ThermoFisher, 44-740G) diluted 1:200 in 1×PBS for 2 hours. Plates were washed four times with 200 μL per well of 1×PBS-0.05% Tween-20 and probed with 100 μL per well of anti-rabbit/HRP conjugate (Cell Signaling Technology, 7074S) diluted 1:600 in 1×PBS for 1 hour. Plates were washed four times with 200 μL per well of 1×PBS-0.05% Tween-20 before 100 μL per well of TMB substrate solution (ThermoFisher, N301) was added. When colour development was observed, 100 μL per well of stop solution (ThermoFisher, N600) was added, and colorimetric detection of pT212Tau signal was read at 450 nm with the Cytation 3 Cell Imaging Multi-Mode Reader (BioTek). The signal was used to plot, draw the curves fitting, and determine the EC50 values in GraphPad Prism for tested representative compounds.

DYRK1A kinase = DYRK1A kinase (Homo sapiens (Human), UniProt Q13627); experiment: DYRK1A kinase assay (Ser/Thr 18 peptide Z-lyte, FRET); settings: DYRK1A kinase; method text calls the value IC50

Row | Structure (SMILES) | EC50 (DYRK1A kinase) | EC50 [1]
1 | Cc1nnc(-c2ccc3cnc(NC(=O)[C@H]4CC[C@H](N(C)C)CC4)cc3c2)s1 [Compound 22, trans-4-(Dimethylamino)-N-(6-(5-methyl-1,3,4-thiadiazol-2-yl)isoquinolin-3-yl)cyclohexane-1-carboxamide] | 5 nM | 11 nM
2 | CN1CC2CCC(C1)N2C(=O)Nc1cc2cc(-c3cnn(C)c3)ccc2cn1 [Compound 61, 3-Methyl-N-(6-(1-methyl-1H-pyrazol-4-yl)isoquinolin-3-yl)-3,8-diazabicyclo[3.2.1]octane-8-carboxamide] | 7 nM | 15 nM
3 | COCCN[C@H]1CC[C@H](C(=O)Nc2cc3cc(-c4cnc(C)o4)ccc3cn2)CC1 [Compound 106, trans-4-((2-Methoxyethyl)amino)-N-(6-(2-methyloxazol-5-yl)isoquinolin-3-yl)cyclohexane-1-carboxamide] | 17 nM | 137 nM
4 | Cc1nnc(-c2ccc3cnc(NC(=O)N4C5CCC4CN(C)C5)cc3c2)s1 [Compound 108, 3-Methyl-N-(6-(5-methyl-1,3,4-thiadiazol-2-yl)isoquinolin-3-yl)-3,8-diazabicyclo[3.2.1]octane-8-carboxamide] | 10 nM | 22 nM
5 | Cc1nnc(-c2ccc3cnc(NC(=O)N4[C@@H]5CC[C@H]4C[C@H](NCCC(F)(F)F)C5)cc3c2)s1 [Compound 153, (1R,5S)-N-(6-(5-Methyl-1,3,4-thiadiazol-2-yl)isoquinolin-3-yl)-3-exo-((3,3,3-trifluoropropyl)amino)-8-azabicyclo[3.2.1]octane-8-carboxamide] | 28 nM | 528 nM
6 | Cc1ncc(-c2ccc3cnc(NC(=O)[C@H]4CC[C@H](NCCF)CC4)cc3c2)o1 [Compound 155, trans-4-((2-fluoroethyl)amino)-N-(6-(2-methyloxazol-5-yl)isoquinolin-3-yl) cyclohexane-1-carboxamide] | 8 nM | 26 nM
7 | Cc1nnc(-c2ccc3cnc(NC(=O)N4[C@@H]5CC[C@H]4C[C@@H](NCCC(F)(F)F)C5)cc3c2)s1 [Compound 195, (1R,5S)-cis-N-(6-(5-methyl-1,3,4-thiadiazol-2-yl)isoquinolin-3-yl)-3-((3,3,3-trifluoropropyl)amino)-8-azabicyclo[3.2.1]octane-8-carboxamide] | 5 nM | 46 nM
8 | Cc1nnc(-c2cc(F)c3cnc(NC(=O)N(C)C4CCN(C)CC4)cc3c2)s1 [Compound 227, 3-(8-Fluoro-6-(5-methyl-1,3,4-thiadiazol-2-yl)isoquinolin-3-yl)-1-methyl-1-(1-methylpiperidin-4-yl)urea] | 24 nM | 691 nM
9 | CN1CCC(N(C)C(=O)Nc2cc3cc(-c4cn(C)nn4)cc(F)c3cn2)CC1 [Compound 228, 3-(8-Fluoro-6-(1-methyl-1H-1,2,3-triazol-4-yl)isoquinolin-3-yl)-1-methyl-1-(1-methylpiperidin-4-yl)urea] | 12 nM | > 10000 nM
10 | Cc1ncc(-c2ccc3cnc(NC(=O)N(C)C4CCN(C)CC4)cc3c2)o1 [Compound 231, 1-Methyl-3-(6-(2-methyloxazol-5-yl)isoquinolin-3-yl)-1-(1-methylpiperidin-4-yl)urea] | 16 nM | 110 nM

The next lines start with results.

Row | EC50 (DYRK1A kinase) | Structure (SMILES) | EC50 [1]
11 | 6 nM | Cc1cn2c(n1)CN(C(=O)Nc1cc3cc(-c4nnc(C)s4)ccc3cn1)CC2 [Compound 58, 2-Methyl-N-(6-(5-methyl-1,3,4-thiadiazol-2-yl)isoquinolin-3-yl)-5,6-dihydroimidazo[1,2-a]pyrazine-7(8H)-carboxamide] | 93 nM
12 | 7 nM | C[C@@H]1CN(C(=O)Nc2cc3cc(-c4cnn(C)c4)ccc3cn2)CCN1C [Compound 67, (R)-3,4-Dimethyl-N-(6-(1-methyl-1H-pyrazol-4-yl)isoquinolin-3-yl) piperazine-1-carboxamide] | 6 nM
13 | 6 nM | COCCN[C@H]1CC[C@H](C(=O)Nc2cc3cc(-c4cnn(C)c4)ccc3cn2)CC1 [Compound 196, trans-4-((2-Methoxyethyl)amino)-N-(6-(1-methyl-1H-pyrazol-4-yl)isoquinolin-3-yl)cyclohexane-1-carboxamide] | 19 nM
14 | 21 nM | CN1CCC(N(C)C(=O)Nc2cc3cc(-c4cnn(C)c4)cc(F)c3cn2)CC1 [Compound 230, 3-(8-Fluoro-6-(1-methyl-1H-pyrazol-4-yl)isoquinolin-3-yl)-1-methyl-1-(1-methylpiperidin-4-yl)urea] | 56 nM
